Molecular target: T1, Lipolase® 100L (Thermomyces lanuginosus, UniProt O59952)
T1 construct: purchased Sigma-Aldrich
T1 sequence (O59952 23-291): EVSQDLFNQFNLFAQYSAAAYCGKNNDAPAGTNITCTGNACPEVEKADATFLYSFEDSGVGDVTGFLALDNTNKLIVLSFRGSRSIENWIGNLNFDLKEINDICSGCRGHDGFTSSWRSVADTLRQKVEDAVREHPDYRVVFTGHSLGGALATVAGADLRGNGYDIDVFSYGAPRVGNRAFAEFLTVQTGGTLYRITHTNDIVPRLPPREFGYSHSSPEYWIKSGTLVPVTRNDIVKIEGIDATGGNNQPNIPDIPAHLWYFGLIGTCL
Assay: Lipase storage stability in liquid formulations at 37° C. (pNP-valerate activity)
Format: biochemical, Thermomyces lanuginosa
Settings: for lipase activity, 3 d: 3 d storage at 37° C.; for lipase activity, 7 d: 7 d storage at 37° C.; for lipase activity, 14 d: 14 d storage at 37° C.; for lipase activity, 21 d: 21 d storage at 37° C.; for lipase activity, 28 d: 28 d storage at 37° C.; for lipase activity, 35 d: 35 d storage at 37° C.; for lipase activity, T0: relative to 100% value of reference formulation at time 0
Experimental: The storage stability of Lipase was assessed at 37° C.
Base test formulations were manufactured by making base formulations I to V by mixing the components according to Table 1.
The respective component (a) or comparative compound was added, if applicable, to the respective base formulation in amounts as indicated in Table 1.
Lipase used: Lipolase® 100L (CAS-No. 9001-62-1, EC-No. 232-619-9) was purchased from Sigma-Aldrich.
The amount of lipase as provided in Table 1 refers to active protein.
Water was added to accomplish the balance to 100.
Lipolase activity at certain points in time as indicated in Table 2 was be determined by employing pNitrophenol-valerate (2.4 mM pNP-C5 in 100 mM Tris pH 8.0, 0.01% Triton X100) as a substrate. The absorption at 405 nm was measured at 20° C. every 30 seconds over 5 minutes.
The slope (absorbance increase at 405 nm per minute) of the time dependent absorption-curve is directly proportional to the activity of the lipase.
The […] activity values provided in Table 2 were calculated referring to the 100% value determined in the reference formulation at the time 0.
The nomenclature of formulations is as follows: the Roman number before the full stop characterizes the base formulation, the Arabian number the type of compound (A.# compound according to invention (component (a)); (B.#) comparative compound).

[1] = base formulation I. (Lipolase 0.2 wt%, tested compound 2.5 wt%)
[2] = base formulation II. (Lipolase 0.2 wt%, tested compound 2.5 wt%)
[3] = base formulation III. (Lipolase 0.2 wt%, tested compound 2.0 wt%)
[4] = base formulation IV. (Lipolase 0.2 wt%, tested compound 2.0 wt%)
[5] = base formulation V. (Lipolase 0.2 wt%, tested compound 2.0 wt%)

SMILES	lipase activity, 3 d [1] [%]	lipase activity, 7 d [1] [%]	lipase activity, 14 d [1] [%]	lipase activity, 21 d [1] [%]	lipase activity, 28 d [1] [%]	lipase activity, 35 d [1] [%]	lipase activity, T0 [1] [%]	lipase activity, 3 d [3] [%]	lipase activity, 7 d [3] [%]	lipase activity, 14 d [3] [%]	lipase activity, 21 d [3] [%]	lipase activity, 28 d [3] [%]	lipase activity, 35 d [3] [%]	lipase activity, T0 [3] [%]	lipase activity, 3 d [4] [%]	lipase activity, 7 d [4] [%]	lipase activity, 14 d [4] [%]	lipase activity, 21 d [4] [%]	lipase activity, 28 d [4] [%]	lipase activity, 35 d [4] [%]	other results
CCOC(=O)CC(O)(CC(=O)OCC)C(=O)OCC [A.1, Triethylcitrate]	102	96	94	87	85	80	100	98	96	93	90	85	82	100	96	94	93	88	85	82	lipase activity, 3 d [2]: 101%; lipase activity, 7 d [2]: 94%; lipase activity, 14 d [2]: 90%; lipase activity, 21 d [2]: 88%; lipase activity, 28 d [2]: 83%; lipase activity, 35 d [2]: 80%; lipase activity, T0 [2]: 100%; lipase activity, T0 [4]: 98%; lipase activity, 3 d [5]: 96%; lipase activity, 7 d [5]: 93%; lipase activity, 14 d [5]: 89%; lipase activity, 21 d [5]: 84%; lipase activity, 28 d [5]: 81%; lipase activity, 35 d [5]: 79%; lipase activity, T0 [5]: 100%
CCCOC(=O)CC(O)(CC(=O)OCCC)C(=O)OCCC [A.2, Tripropylcitrate]	100	98	94	90	87	82	101	100	101	97	94	90	87	102	–	–	–	–	–	–	–
CCCCOC(=O)CC(O)(CC(=O)OCCCC)C(=O)OCCCC [A.3, Tributylcitrate]	–	–	–	–	–	–	–	–	–	–	–	–	–	–	100	96	95	90	88	85	lipase activity, T0 [4]: 99%; lipase activity, 3 d [5]: 97%; lipase activity, 7 d [5]: 92%; lipase activity, 14 d [5]: 88%; lipase activity, 21 d [5]: 83%; lipase activity, 28 d [5]: 80%; lipase activity, 35 d [5]: 73%; lipase activity, T0 [5]: 101%
CCCCOC(=O)CC(CC(=O)OCCCC)(OC(C)=O)C(=O)OCCCC [A.4, Acetyltributylcitrate]	104	99	93	88	83	78	102	–	–	–	–	–	–	–	97	95	93	89	86	83	lipase activity, T0 [4]: 101%; lipase activity, 3 d [5]: 100%; lipase activity, 7 d [5]: 94%; lipase activity, 14 d [5]: 90%; lipase activity, 21 d [5]: 85%; lipase activity, 28 d [5]: 80%; lipase activity, 35 d [5]: 74%; lipase activity, T0 [5]: 101%
CCOC(=O)CC(CC(=O)OCC)(OC(C)=O)C(=O)OCC [A.5, Acetyltriethylcitrate]	100	97	92	86	81	74	97	95	93	88	85	80	77	98	–	–	–	–	–	–	lipase activity, 3 d [2]: 98%; lipase activity, 7 d [2]: 97%; lipase activity, 14 d [2]: 93%; lipase activity, 21 d [2]: 90%; lipase activity, 28 d [2]: 85%; lipase activity, 35 d [2]: 81%; lipase activity, T0 [2]: 102%

Reference: patent US20210395651A1, “COMPOUNDS STABILIZING HYDROLASES IN LIQUIDS” (BASF SE, priority 2018, published 2021)
